The test system of data set [1] is HDFn neonatal dermal fibroblast cell line. In words: Antiproliferative activity (NCI procedure, sulforhodamine B), HDFn. The format is cell-based, human. Particulars: Homo sapiens, Fibroblast, unit inferred, tested 781 nM to 100 μM, 48 h. Here is the method: (§1) The antiproliferative activity of compounds 3a-b, 4a-e, 5a-e and 6a-e was subsequently evaluated using the human HT-29 colon adenocarcinoma and the A549 adenocarcinoma alveolar epithelial cancer cell lines, the HaCaT spontaneously transformed aneuploid immortal keratinocyte cell line and the HDFn neonatal dermal fibroblast cell line (Table 2). Cell growth inhibition was assessed according to the NCI/NIH Developmental Therapeutics Program.
(§2) The antiproliferative activity assay of all compounds was assessed using the procedure recommended by the National Cancer Institute for its drug screening program with minor modifications. Briefly, 96-well microtiter plates were seeded with 75 μL of a suspension of either HaCaT (5×10^3), HT-29 (3.0×10^3), A549 (3.0×10^3) or HDFn (3×10^3) cells per well in DMEM and incubated for 24 h at 37° C. in a moisture-saturated atmosphere containing 5% CO2. Compounds freshly solubilized in DMSO (40 mM) were diluted in fresh DMEM, and 75 μL aliquots containing serially diluted concentrations of the compound were added. Final compound concentrations ranged from 100 μM to 781 nM. DMSO was maintained at a concentration of <0.5% (v/v) to avoid any related cytotoxicity. Plates were subsequently incubated for 48 h. Cell growth was then stopped by the addition of cold trichloroacetic acid to the wells (10% w/v, final concentration), followed by a 1 h incubation period at 4° C. The plates were washed 4-times with water. A sulforhodamine B solution (75 μL; 0.1% w/v) in acetic acid (1%) was subsequently added to each well and the plates incubated over a 15 min period while at room temperature. After staining, any unbound dye was removed by washing 4-times with an acetic acid solution (1%). Bound dye was solubilized in 20 mM Tris base and the absorbance was measured at an optimal wavelength (530-568 nm) using a μQuant® Universal microplate spectrophotometer (BioTek, Winooski, Vt.). The measurements for treated cells were compared with measurements from control cell plates fixed on treatment day and the percentage of cell growth inhibition was calculated for each drug. The experiments were performed at least twice in triplicate. The assays were considered valid when the coefficient of variation for a given set of conditions and within the same experiment was <10%.

Data set [2] deals with HaCaT keratinocyte cell line. In words: Antiproliferative activity (NCI procedure, sulforhodamine B), HaCaT. In kind it is cell-based, human. Particulars: Homo sapiens, HaCaT, unit inferred, tested 781 nM to 100 μM, 48 h. Here is the method:
as §1, §2

For data set [3], the system named is A549 adenocarcinoma alveolar epithelial cancer cells. In words: Antiproliferative activity (NCI procedure, sulforhodamine B), A549. In kind it is cell-based, human. Particulars: Homo sapiens, A549, unit inferred, tested 781 nM to 100 μM, 48 h. Here is the method: as §1, §2
The test system of data set [4] is HT-29 colon adenocarcinoma cells. In words: Antiproliferative activity (NCI procedure, sulforhodamine B), HT-29. The format is cell-based, human. The note with it: Homo sapiens, HT-29, unit inferred, tested 781 nM to 100 μM, 48 h. The method, then: as §1, §2

With `O=c1c(Nc2ccc(I)cc2)c(NC2CC2)c1=O` [Compound 70], the half-inhibitory concentration (IC50) in data set [1] (Table 7), in data set [2] (Table 7), in data set [3] (Table 7) and in data set [4] (Table 7) was more than 100 µM throughout.
Regarding `O=c1c(Nc2cccc(C3CCCCC3)c2)c(NC2CCCC2)c1=O` [Compound 81], the half-inhibitory concentration (IC50) in data set [1] (Table 7) was 1.9 µM; in data set [2] (Table 7), 5.6 µM; in data set [3] (Table 7), 3.7 µM; in data set [4] (Table 7) it was 4.3 µM.
Consider `COCCNC(=O)Nc1ccc(I)cc1` [Compound 26, 1-(4-Iodophenyl)-3-(2-methoxyethyl)urea], for which the melting point is 141 to 143 °C.
`CCC(CC)NC(=O)Nc1cccc(C(C)(C)C)c1` [Compound 53, 1-(3-(t-Butyl)phenyl)-3-(pentan-3-yl)urea] had a melting point of 159 to 161 °C.
Same read-out and setting: in the case of `COCCNC(=O)Nc1ccc(C(C)(C)C)cc1` [Compound 33, 1-(4-(t-Butyl)phenyl)-3-(2-methoxyethyl)urea] it was 122 to 124 °C.
Turning to `CC(C)(C)c1cccc(Nc2c(NC3CCCC3)c(=O)c2=O)c1` [Compound 87], the IC50 in data set [1] (Table 7) turned out to be 2.8 µM; in data set [2] (Table 7) it was 5.5 µM; in data set [3] (Table 7), 4 µM; in data set [4] (Table 7), 4.3 µM.
The like results for `O=c1c(NCC2CCC2)c(Nc2cccc(I)c2)c1=O` [Compound 74] were, in that order, 4.1 µM, 10.9 µM, 8.3 µM and 15 µM.
Taken in the same sequence, the figures for `O=c1c(NCC2CCC2)c(Nc2ccc(C3CCCCC3)cc2)c1=O` [Compound 77] were more than 100 µM, more than 100 µM, 89.6 µM and more than 100 µM.
The like results for `CC(C)(C)c1cccc(Nc2c(NCC3CCC3)c(=O)c2=O)c1` [Compound 86] were, in that order, 3.8 µM, 56.1 µM, 13.7 µM and 14.8 µM.
In the case of `O=c1c(Nc2cccc(I)c2)c(NC2CC2)c1=O` [Compound 73], the IC50 in data set [1] (Table 7) is 19.6 µM; in data set [2] (Table 7) it was 37.7 µM; in data set [3] (Table 7), 26.8 µM; in data set [4] (Table 7) it was 39.8 µM.
Regarding `O=c1c(Nc2ccc(I)cc2)c(NC2CCCC2)c1=O` [Compound 72], the IC50 in data set [1] (Table 7) came out at 6.9 µM; in data set [2] (Table 7), 10.6 µM; in data set [3] (Table 7), 8 µM; in data set [4] (Table 7), 10 µM.
For the compound `CCC(CC)NC(=O)Nc1ccc(C(C)(C)C)cc1` [Compound 34, 1-(4-(t-Butyl)phenyl)-3-(pentan-3-yl)urea], the melting point fell in the range of 119 to 121 °C.
On the same count and under the same terms, under `O=C(NCC1CC1)Nc1ccc(C2CCCCC2)cc1` [Compound 55, 1-(4-Cyclohexylphenyl)-3-(cyclopropylmethyl)urea] stands 178 to 181 °C; under `CC(C)(C)c1cccc(NC(=O)NC2CCC2)c1` [Compound 46, 1-(3-(t-Butyl)phenyl)-3-cyclobutylurea], 165 to 166 °C.
For the compound `CC(C)(C)c1ccc(Nc2c(NCC3CCC3)c(=O)c2=O)cc1` [Compound 83], the IC50 in data set [1] (Table 7), in data set [2] (Table 7), in data set [3] (Table 7) and in data set [4] (Table 7) was more than 100 µM each time.
Consider `CC(C)(C)c1ccc(Nc2c(NC3CC3)c(=O)c2=O)cc1` [Compound 82], for which the IC50 stood at 13.2 µM in data set [1] (Table 7), 47.9 µM in data set [2] (Table 7), 17.9 µM in data set [3] (Table 7) and 18.7 µM in data set [4] (Table 7).
`COCCNC(=O)Nc1cccc(I)c1` [Compound 42, 1-(3-Iodophenyl)-3-(2-methoxyethyl)urea] registered a melting point of 99 to 101 °C.
As to `O=C(Nc1cccc(I)c1)NC1CC=CC1` [Compound 41, 1-(Cyclopent-3-en-1-yl)-3-(3-iodophenyl)urea], the melting point was 151 to 153 °C.
For the compound `O=c1c(Nc2ccc(C3CCCCC3)cc2)c(NC2CCCC2)c1=O` [Compound 78], the half-inhibitory concentration (IC50) in data set [1] (Table 7) is more than 100 µM; in data set [2] (Table 7), more than 100 µM; in data set [3] (Table 7) it was 96.1 µM; in data set [4] (Table 7), more than 100 µM.
`CC(C)(C)c1ccc(NC(=O)NCC2CC2)cc1` [Compound 28, 1-(4-(t-Butyl)phenyl)-3-(cyclopropylmethyl)urea] registered a melting point of 168 to 170 °C.
Regarding `O=c1c(Nc2cccc(C3CCCCC3)c2)c(NC2CC2)c1=O` [Compound 79], the IC50 in data set [1] (Table 7) came out at 4.3 µM; in data set [2] (Table 7) it was 11 µM; in data set [3] (Table 7), 8 µM; in data set [4] (Table 7) it was 7.9 µM.
`O=C(Nc1ccc(C2CCCCC2)cc1)NC1CC=CC1` [Compound 60, 1-(4-Cyclohexylphenyl)-3-(cyclopent-3-en-1-yl)urea] had a melting point of 167 to 169 °C.
The same measure, in the same setting: under `CC(C)(C)CNC(=O)Nc1ccc(C2CCCCC2)cc1` [Compound 61, 1-(4-Cyclohexylphenyl)-3-neopentylurea] stands 167 to 169 °C; under `COCCNC(=O)Nc1cccc(C(C)(C)C)c1` [Compound 52, 1-(3-(t-Butyl)phenyl)-3-(2-methoxyethyl)urea], 119 to 120 °C.
The same measure, in the same setting: under `CC(C)(C)c1cccc(NC(=O)NCC2CCCC2)c1` [Compound 49] stands 113 to 114 °C; under `CC(C)(C)c1cccc(NC(=O)NCC2CC2)c1` [Compound 45, 1-(3-(t-Butyl)phenyl)-3-(cyclopropylmethyl)urea], 165 to 166 °C; under `O=C(Nc1ccc(I)cc1)NC1CC=CC1` [Compound 35, 1-(Cyclopent-3-en-1-yl)-3-(4-iodophenyl)urea], 201 to 202 °C.
`CC(C)(C)CNC(=O)Nc1cccc(C(C)(C)C)c1` [Compound 51, 1-(3-(t-Butyl)phenyl)-3-neopentylurea] gave a melting point of 145 to 147 °C.
Consider `CC(C)(C)CNC(=O)Nc1ccc(C(C)(C)C)cc1` [Compound 65, 1-(4-(t-Butyl)phenyl)-3-neopentylurea], for which the melting point fell in the range of 185 to 187 °C.
As to `O=c1c(Nc2cccc(I)c2)c(NC2CCCC2)c1=O` [Compound 75], the IC50 in data set [1] (Table 7) worked out at 4.6 µM; in data set [2] (Table 7), 11.8 µM; in data set [3] (Table 7), 9 µM; in data set [4] (Table 7), 15.2 µM.
For `CCNC(=S)Nc1cccc(C2CCCCC2)c1` [Compound 104], the IC50 in data set [1] (Table 8) was 12.9 µM; in data set [2] (Table 8) it was 19.3 µM; in data set [3] (Table 8) it was 22.4 µM; in data set [4] (Table 8), 17.9 µM.
For the compound `O=c1c(Nc2ccc(C3CCCCC3)cc2)c(NC2CC2)c1=O` [Compound 76], the IC50 in data set [1] (Table 7) was more than 100 µM; in data set [2] (Table 7) it was more than 100 µM; in data set [3] (Table 7) it was 74 µM; in data set [4] (Table 7) it was more than 100 µM.
For `CC(C)(C)c1ccc(Nc2c(NC3CCCC3)c(=O)c2=O)cc1` [Compound 84], the concentration for half-maximal inhibition (IC50) in data set [1] (Table 7) is more than 100 µM; in data set [2] (Table 7), more than 100 µM; in data set [3] (Table 7), 15.1 µM; in data set [4] (Table 7), more than 100 µM.
As for `O=c1c(NCC2CCC2)c(Nc2ccc(I)cc2)c1=O` [Compound 71], the IC50 in data set [1] (Table 7), in data set [2] (Table 7), in data set [3] (Table 7) and in data set [4] (Table 7) was more than 100 µM throughout.
In the case of `O=c1c(NCC2CCC2)c(Nc2cccc(C3CCCCC3)c2)c1=O` [Compound 80], the half-inhibitory concentration (IC50) was 1.9 µM in data set [1] (Table 7), 6 µM in data set [2] (Table 7), 4.2 µM in data set [3] (Table 7) and 4.5 µM in data set [4] (Table 7).
With `CC(C)(C)c1cccc(Nc2c(NC3CC3)c(=O)c2=O)c1` [Compound 85], the IC50 in data set [1] (Table 7) came out at 57.3 µM; in data set [2] (Table 7), 81.4 µM; in data set [3] (Table 7) it was 40.8 µM; in data set [4] (Table 7) it was 64.1 µM.
As to `CC(C)NC(=O)Nc1ccc(I)cc1` [Compound 1], the IC50 came to 83.6 µM in data set [1] (Table 5), 91.9 µM in data set [2] (Table 5), 81.9 µM in data set [3] (Table 5) and 54.8 µM in data set [4] (Table 5).

By IC50 is commonly meant the midpoint of a concentration-inhibition curve. High values mean weaker potency in that assay, low ones greater potency in that assay. By melting point is commonly meant the temperature of the solid-liquid transition.

Source of the values: US20210163404A1, “NOVEL UREA COMPOUNDS AND BIOISOSTERES THEREOF AND THEIR USE FOR TREATING INFLAMMATION AND INFLAMMATION-RELATED PATHOLOGIES” (UNIVERSITÉ LAVAL, priority 2017, published 2021).
